Laboratory results from US20210130617A1, “COLORING COMPOSITION, FILM, COLOR FILTER, METHOD FOR MANUFACTURING COLOR FILTER, SOLID-STATE IMAGING ELEMENT, AND IMAGE DISPLAY DEVICE” (FUJIFILM Corporation, priority 2018, published 2021).

Experiments:
[1] = Solubility in PGMEA at 25° C. (visual check of insoluble matters); assay type: physicochemical
Text: The evaluation standard is as follows.

[2] = Maximum absorption wavelength in chloroform (Cary 5000 spectrophotometer); assay type: physicochemical; details: wavelength range 400 to 800 nm
Method: In addition, the maximum absorption wavelength was obtained by dissolving 50 mg of each compound in 200 mL of chloroform, adding chloroform to 2 mL of this solution so as to be 200 mL, and measuring the absorbance of the solution in a wavelength range of 400 to 800 nm using Cary 5000 UV-Vis-NIR spectrophotometer (manufactured by Agilent Technologies, Inc.).

| Compound | Solubility [1] | Maximum absorption wavelength [2] [nm] | solubility at 15 min ([1]; organic solvent or mixture, thermodynamic from solid) [µg/mL] |
| --- | --- | --- | --- |
| O=C1C(=C2C=CC(=[N+](c3ccccc3)c3cccc4ccccc34)C=C2O)C([O-])=C1c1ccc(N(c2ccccc2)c2cccc3ccccc23)cc1O [SQ-1] | A (solubility is 20 mg/L or less.) | 670 | – |
| Cc1ccc(N(c2ccc(C3=C([O-])C(=C4C=CC(=[N+](c5ccc(C)cc5)c5cccc6ccccc56)C=C4O)C3=O)c(O)c2)c2cccc3ccccc23)cc1 [SQ-2] | B (solubility is more than 20 mg/L and 25 mg or less.) | 675 | – |
| Cc1cccc(N(c2ccc(C3=C([O-])C(=C4C=CC(=[N+](c5cccc(C)c5)c5cccc6ccccc56)C=C4O)C3=O)c(O)c2)c2cccc3ccccc23)c1 [SQ-3] | B (solubility is more than 20 mg/L and 25 mg or less.) | 675 | – |
| Cc1ccccc1N(c1ccc(C2=C([O-])C(=C3C=CC(=[N+](c4ccccc4C)c4cccc5ccccc45)C=C3O)C2=O)c(O)c1)c1cccc2ccccc12 [SQ-4] | B (solubility is more than 20 mg/L and 25 mg or less.) | 675 | – |
| Cc1ccc(N(c2ccc(C3=C([O-])C(=C4C=CC(=[N+](c5ccc(C)cc5C)c5cccc6ccccc56)C=C4O)C3=O)c(O)c2)c2cccc3ccccc23)c(C)c1 [SQ-7] | C (solubility is more than 25 mg/L and 30 mg or less.) | 680 | – |
| O=C1C(=C2C=CC(=[N+](c3ccc(Cl)cc3)c3cccc4ccccc34)C=C2O)C([O-])=C1c1ccc(N(c2ccc(Cl)cc2)c2cccc3ccccc23)cc1O [SQ-12] | A (solubility is 20 mg/L or less.) | 665 | – |
| CCc1ccc(N(c2ccc(C3=C([O-])C(=C4C=CC(=[N+](c5ccc(CC)cc5)c5cccc6ccccc56)C=C4O)C3=O)c(O)c2)c2cccc3ccccc23)cc1 [SQ-13] | B (solubility is more than 20 mg/L and 25 mg or less.) | 675 | – |
| CC(C)(C)c1ccc(N(c2ccc(C3=C([O-])C(=C4C=CC(=[N+](c5ccc(C(C)(C)C)cc5)c5cccc6ccccc56)C=C4O)C3=O)c(O)c2)c2cccc3ccccc23)cc1 [SQ-14] | C (solubility is more than 25 mg/L and 30 mg or less.) | 670 | – |
| CCOc1ccc(N(c2ccc(C3=C([O-])C(=C4C=CC(=[N+](c5ccc(OCC)cc5)c5cccc6ccccc56)C=C4O)C3=O)c(O)c2)c2cccc3ccccc23)cc1 [SQ-15] | B (solubility is more than 20 mg/L and 25 mg or less.) | 680 | – |
| N#Cc1ccc(N(c2ccc(C3=C([O-])C(=C4C=CC(=[N+](c5ccc(C#N)cc5)c5cccc6ccccc56)C=C4O)C3=O)c(O)c2)c2cccc3ccccc23)cc1 [SQ-16] | A (solubility is 20 mg/L or less.) | 660 | – |
| CSc1ccc(N(c2ccc(C3=C([O-])C(=C4C=CC(=[N+](c5ccc(SC)cc5)c5cccc6ccccc56)C=C4O)C3=O)c(O)c2)c2cccc3ccccc23)cc1 [SQ-17] | A (solubility is 20 mg/L or less.) | 675 | – |
| CN(C)c1ccc(N(c2ccc(C3=C([O-])C(=C4C=CC(=[N+](c5ccc(N(C)C)cc5)c5cccc6ccccc56)C=C4O)C3=O)c(O)c2)c2cccc3ccccc23)cc1 [SQ-18] | A (solubility is 20 mg/L or less.) | 685 | – |
| CC(=O)Nc1ccc(N(c2ccc(C3=C([O-])C(=C4C=CC(=[N+](c5ccc(NC(C)=O)cc5)c5cccc6ccccc56)C=C4O)C3=O)c(O)c2)c2cccc3ccccc23)cc1 [SQ-19] | A (solubility is 20 mg/L or less.) | 670 | – |
| O=C1C(=C2C=CC(=[N+](c3ccco3)c3cccc4ccccc34)C=C2O)C([O-])=C1c1ccc(N(c2ccco2)c2cccc3ccccc23)cc1O [SQ-25] | B (solubility is more than 20 mg/L and 25 mg or less.) | 665 | – |
| O=C1C(=C2C=CC(=[N+](c3cccc4ccccc34)c3cccc4ccccc34)C=C2O)C([O-])=C1c1ccc(N(c2cccc3ccccc23)c2cccc3ccccc23)cc1O [SQ-29] | A (solubility is 20 mg/L or less.) | 680 | – |
| O=C1C(=C2C=CC(=[N+](c3ccccc3)c3cc(C(F)(F)F)cc(C(F)(F)F)c3)C=C2O)C([O-])=C1c1ccc(N(c2ccccc2)c2cc(C(F)(F)F)cc(C(F)(F)F)c2)cc1O [SQ-67] | C (solubility is more than 25 mg/L and 30 mg or less.) | 675 | – |
| O=C1C(=C2C(O)=CC(=[N+](c3ccc(Cl)cc3)c3cccc4ccccc34)C=C2O)C([O-])=C1c1c(O)cc(N(c2ccc(Cl)cc2)c2cccc3ccccc23)cc1O [SQ-74] | A (solubility is 20 mg/L or less.) | 665 | – |
| O=C1C(=C2C(O)=CC(=[N+](c3cccc4ccccc34)c3cccc4ccccc34)C=C2O)C([O-])=C1c1c(O)cc(N(c2cccc3ccccc23)c2cccc3ccccc23)cc1O [SQ-77] | A (solubility is 20 mg/L or less.) | 670 | – |
| O=C1C(=C2C(O)=CC(=[N+](c3ccccc3)c3ccc4ccccc4c3)C=C2O)C([O-])=C1c1c(O)cc(N(c2ccccc2)c2ccc3ccccc3c2)cc1O [SQ-96] | A (solubility is 20 mg/L or less.) | 690 | – |
| CCOC1=CC(=[N+](c2ccccc2)c2cccc3ccccc23)C=CC1=C1C(=O)C(c2ccc(N(c3ccccc3)c3cccc4ccccc34)cc2OCC)=C1[O-] [SQ-101] | A (solubility is 20 mg/L or less.) | 690 | – |
| O=C1C(=C2C(O)=CC(=[N+](c3ccccc3)c3cccc4ccccc34)c3ccccc32)C([O-])=C1c1c(O)cc(N(c2ccccc2)c2cccc3ccccc23)c2ccccc12 [SQ-104] | A (solubility is 20 mg/L or less.) | 695 | – |
| O=C1C(=C2C=CC(=[N+](c3ccccc3-c3ccccc3)c3ccccc3[N+](=O)[O-])C=C2O)C([O-])=C1c1ccc(N(c2ccccc2-c2ccccc2)c2ccccc2[N+](=O)[O-])cc1O [SQ-108] | A (solubility is 20 mg/L or less.) | 685 | – |
| O=C1C(=C2C=CC(=[N+](c3ccccc3-c3ccccc3)c3ccccc3-c3ccccc3)C=C2O)C([O-])=C1c1ccc(N(c2ccccc2-c2ccccc2)c2ccccc2-c2ccccc2)cc1O [SQ-110] | A (solubility is 20 mg/L or less.) | 675 | – |
| CCCCN(CCCC)c1cc(O)c(C2=C([O-])C(=C3C(O)=CC(=[N+](CCCC)CCCC)C=C3O)C2=O)c(O)c1 [SQ-R1, reference compound] | – | 655 | > 30 |
